This experiment concerns the target T1, EGFR (HCC827 cells) (Homo sapiens, UniProt P00533, DEL746-750).
T1 construct: endogenous in cells; host or cells: HCC827
Put plainly: EGFR degradation HTRF assay, HCC827 cells. The experiment is classed as cell-based. The note with it: HCC827, 16h treatment; for Dmax: maximum percentage of degradation. As for the experimental part:
BaF3 WT(wild type), BaF3-LTC(L858R/T790M/C797S) and BaF3-DTC(Del19/T790M/C797S) cells are treated with compounds diluted in 0.2% DMSO cell culture medium and incubate for 16h, 37° C., 5% CO2, H1975-#36, H1975-#28, H1975-#23 and HCC827 cells are treated with compounds diluted in 0.2% DMSO cell culture medium on day 2, incubate for 16h, 37° C., 5% CO2.the final concentriation of compounds in all assay is start with 10 uM, 5-fold dilution, total 8 doses were included.
After 16h treatment, add HTRF lysis buffer to each well; seal the plate and incubate 1 hour at room temperature on a plate shaker; Once the cells are lysed, 16 μL of cell lysate are transferred to a PE 384-well HTRF detection plate; 4 μL of pre-mixed HTRF antibodies are added to each well; Cover the plate with a plate sealer, spin 1000 rpm for 1 min, Incubate overnight at room temperature; Read on BMG PheraStar with HTRF protocol (337 nm-665 nm-620 nm).
The inhibition (degradation) percentage of the compound was calculated by the following equation: Inhibition percentage of Compound=100-100×(Signal-low control)/(High control-low control), wherein signal=each test compound group
High control=Cell group with added DMSO and without compound, indicating microplate readings without EGFR degradation;
Dmax is the maximum percentage of inhibition (degradation).
The IC50 (DC50) value of a compound can be obtained by fitting the following equation
Y=Bottom+(TOP−Bottom)/(1+((IC50/X)^hillslope))
Wherein, X and Y are known values, and IC50, Hillslope, Top and Bottom are the parameters obtained by fitting with software. Y is the inhibition percentage (calculated from the equation), X is the concentration of the compound; IC50 is the concentration of the compound when the 50% inhibition is reached. The smaller the IC50 value is, the stronger the inhibitory ability of the compound is. Vice versa, the higher the IC50 value is, the weaker the inhibitory ability of the compound is; Hillslope represents the slope of the fitted curve, generally around 1*; Bottom represents the minimum value of the curve obtained by data fitting, which is generally 0%±20%; Top represents the maximum value of the curve obtained by data fitting, which is generally 100%±20%. The experimental data were fitted by calculating and analyzing with Dotmatics data analysis software.
(In general: In TR-FRET formats the signal depends on donor and acceptor labels being close together.)

T1 sequence (P00533 with tags, fused parts or gaps DEL746-750): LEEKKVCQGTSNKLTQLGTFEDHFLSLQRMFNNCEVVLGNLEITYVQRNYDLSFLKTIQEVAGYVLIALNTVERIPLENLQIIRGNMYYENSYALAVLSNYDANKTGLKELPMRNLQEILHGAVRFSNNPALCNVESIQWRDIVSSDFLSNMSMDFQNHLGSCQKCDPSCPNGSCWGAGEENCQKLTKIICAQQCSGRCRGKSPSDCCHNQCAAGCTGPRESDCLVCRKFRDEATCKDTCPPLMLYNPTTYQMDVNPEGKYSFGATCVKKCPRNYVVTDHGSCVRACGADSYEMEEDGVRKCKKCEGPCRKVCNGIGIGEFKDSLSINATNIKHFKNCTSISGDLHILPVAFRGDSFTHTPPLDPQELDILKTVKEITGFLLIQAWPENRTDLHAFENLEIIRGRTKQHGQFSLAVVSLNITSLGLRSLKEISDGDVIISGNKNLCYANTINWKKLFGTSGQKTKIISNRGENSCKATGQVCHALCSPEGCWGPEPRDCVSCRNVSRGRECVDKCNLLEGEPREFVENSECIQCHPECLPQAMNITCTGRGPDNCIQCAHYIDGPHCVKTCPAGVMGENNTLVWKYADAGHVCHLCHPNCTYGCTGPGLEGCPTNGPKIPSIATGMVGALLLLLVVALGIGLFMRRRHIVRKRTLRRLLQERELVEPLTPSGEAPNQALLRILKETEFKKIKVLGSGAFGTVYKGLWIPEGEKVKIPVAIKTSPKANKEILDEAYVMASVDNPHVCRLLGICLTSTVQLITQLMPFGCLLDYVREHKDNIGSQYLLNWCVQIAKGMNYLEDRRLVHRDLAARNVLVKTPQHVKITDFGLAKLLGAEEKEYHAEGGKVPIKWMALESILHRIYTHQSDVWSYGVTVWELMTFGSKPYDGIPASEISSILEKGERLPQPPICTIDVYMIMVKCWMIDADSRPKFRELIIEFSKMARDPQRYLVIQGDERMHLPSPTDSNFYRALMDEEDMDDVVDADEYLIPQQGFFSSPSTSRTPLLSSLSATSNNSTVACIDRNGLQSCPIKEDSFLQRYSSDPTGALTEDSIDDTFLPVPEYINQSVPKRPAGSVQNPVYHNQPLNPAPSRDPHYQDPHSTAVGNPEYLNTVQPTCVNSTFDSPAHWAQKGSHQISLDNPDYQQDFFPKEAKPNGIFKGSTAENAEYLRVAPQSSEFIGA

In the case of `CCc1cc(Nc2ncc(Br)c(Nc3ccc4nccnc4c3P(C)(C)=O)n2)c(OC)cc1N1CCC(N2CCN(C(=O)CN3CCN(c4ccc5c(c4)C(=O)N(C4CCC(=O)NC4=O)C5)CC3)CC2)CC1` (centres unmarked) [Example 68, 3-(6-(4-(2-(4-(1-(4-((5-bromo-4-((5-(dimethylphosphoryl)quinoxalin-6-yl)amino)pyrimidin-2-yl)amino)-2-ethyl-5-methoxyphenyl)piperidin-4-yl)piperazin-1-yl)-2-oxoethyl)piperazin-1-yl)-1-oxoisoindolin-2-yl)piperidine-2,6-dione], half-maximal degradation (DC50) was put at 13.1 nM and the Dmax worked out at 64.3%.

Consider `COc1cc(N2CCC(N(C)CCc3ccc(C4CCC(=O)NC4=O)cn3)CC2)c(C)cc1Nc1ncc(Br)c(Nc2ccc3nccnc3c2P(C)(C)=O)n1` (centres unmarked) [Example 74, 3-(6-(2-((1-(4-((5-bromo-4-((5-(dimethylphosphoryl)quinoxalin-6-yl)amino)pyrimidin-2-yl)amino)-5-methoxy-2-methylphenyl)piperidin-4-yl)(methyl)amino)ethyl)pyridin-3-yl)piperidine-2,6-dione], for which the DC50 was found to be 57.2 nM and the Dmax was 85.2%.

For `COc1cc(N2CCC(N(C)CCc3ccc(C4CCC(=O)NC4=O)cc3)CC2)c(C)cc1Nc1ncc(Br)c(Nc2ccc3nccnc3c2P(C)(C)=O)n1` (centres unmarked) [Example 75, 3-(4-(2-((1-(4-((5-bromo-4-((5-(dimethylphosphoryl)quinoxalin-6-yl)amino)pyrimidin-2-yl)amino)-5-methoxy-2-methylphenyl)piperidin-4-yl)(methyl)amino)ethyl)phenyl)piperidine-2,6-dione], it took 50.6 nM to reach half-maximal degradation (DC50) and the Dmax was 72.1%.

`COc1cc(N2CCC(N(C)CCOc3ccc(C4CCC(=O)NC4=O)cc3)CC2)c(C)cc1Nc1ncc(Br)c(Nc2ccc3nccnc3c2P(C)(C)=O)n1` (centres unmarked) [Example 76, 3-(4-(2-((1-(4-((5-bromo-4-((5-(dimethylphosphoryl)quinoxalin-6-yl)amino)pyrimidin-2-yl)amino)-5-methoxy-2-methylphenyl)piperidin-4-yl)(methyl)amino)ethoxy)phenyl)piperidine-2,6-dione] displayed a DC50 of 30.5 nM and a Dmax of 77.1%.

Turning to `COc1cc(N2CCC(N(C)CCC3CCN(c4ccc(C5CCC(=O)NC5=O)cc4)CC3)CC2)c(C)cc1Nc1ncc(Br)c(Nc2ccc3nccnc3c2P(C)(C)=O)n1` (centres unmarked) [Example 78, 3-(4-(4-(2-((1-(4-((5-bromo-4-((5-(dimethylphosphoryl)quinoxalin-6-yl)amino)pyrimidin-2-yl)amino)-5-methoxy-2-methylphenyl)piperidin-4-yl)(methyl)amino)ethyl)piperidin-1-yl)phenyl)piperidine-2,6-dione], the DC50 came to 15.2 nM and the Dmax turned out to be 70.1%.

For `COc1cc(N2CCC(N(C)CCC3CCN(c4ccc(N5CCC(=O)NC5=O)cc4)CC3)CC2)c(C)cc1Nc1ncc(Br)c(Nc2ccc3nccnc3c2P(C)(C)=O)n1` [Example 80, 1-(4-(4-(2-((1-(4-((5-bromo-4-((5-(dimethylphosphoryl)quinoxalin-6-yl)amino)pyrimidin-2-yl)amino)-5-methoxy-2-methylphenyl)piperidin-4-yl)(methyl)amino)ethyl)piperidin-1-yl)phenyl)dihydropyrimidine-2,4(1H,3H)-dione], the DC50 worked out at 35.9 nM and the Dmax came out at 74.4%.

The compound `COc1cc(N2CCN(CCc3ccc(C4CCC(=O)NC4=O)cc3)CC2)c(C)cc1Nc1ncc(Br)c(Nc2ccc3nccnc3c2P(C)(C)=O)n1` (centres unmarked) [Example 86, 3-(4-(2-(4-(4-((5-bromo-4-((5-(dimethylphosphoryl)quinoxalin-6-yl)amino)pyrimidin-2-yl)amino)-5-methoxy-2-methylphenyl)piperazin-1-yl)ethyl)phenyl)piperidine-2,6-dione] displayed a DC50 of 66.7 nM and a Dmax of 81%.

Consider `COc1cc(N2CCN(CCc3ccc(C4CCC(=O)NC4=O)cn3)CC2)c(C)cc1Nc1ncc(Br)c(Nc2ccc3nccnc3c2P(C)(C)=O)n1` (centres unmarked) [Example 87, 3-(6-(2-(4-(4-((5-bromo-4-((5-(dimethylphosphoryl)quinoxalin-6-yl)amino)pyrimidin-2-yl)amino)-5-methoxy-2-methylphenyl)piperazin-1-yl)ethyl)pyridin-3-yl)piperidine-2,6-dione], for which it took 57.5 nM to reach half-maximal degradation (DC50) and the Dmax was determined as 86.2%.

Consider `COc1cc(N2CCN(CCOc3ccc(C4CCC(=O)NC4=O)cc3)CC2)c(C)cc1Nc1ncc(Br)c(Nc2ccc3nccnc3c2P(C)(C)=O)n1` (centres unmarked) [Example 91, 3-(4-(2-(4-(4-((5-bromo-4-((5-(dimethylphosphoryl)quinoxalin-6-yl)amino)pyrimidin-2-yl)amino)-5-methoxy-2-methylphenyl)piperazin-1-yl)ethoxy)phenyl)piperidine-2,6-dione], for which half-maximal degradation (DC50) was put at 90.4 nM and the greatest degradation seen (Dmax) was determined as 73.5%.

`COc1cc(N2CCN(CCCOc3ccc(OC4CCC(=O)NC4=O)cc3)CC2)c(C)cc1Nc1ncc(Br)c(Nc2ccc3nccnc3c2P(C)(C)=O)n1` (centres unmarked) [Example 92, 3-(4-(3-(4-(4-((5-bromo-4-((5-(dimethylphosphoryl)quinoxalin-6-yl)amino)pyrimidin-2-yl)amino)-5-methoxy-2-methylphenyl)piperazin-1-yl)propoxy)phenoxy)piperidine-2,6-dione] gave a DC50 of 306 nM and a Dmax of 76.8%.

`COc1cc(N2CCN(CCc3ccc(OC4CCC(=O)NC4=O)cc3)CC2)c(C)cc1Nc1ncc(Br)c(Nc2ccc3nccnc3c2P(C)(C)=O)n1` (centres unmarked) [Example 93, 3-(4-(2-(4-(4-((5-bromo-4-((5-(dimethylphosphoryl)quinoxalin-6-yl)amino)pyrimidin-2-yl)amino)-5-methoxy-2-methylphenyl)piperazin-1-yl)ethyl)phenoxy)piperidine-2,6-dione]: the DC50 turned out to be 130 nM and the Dmax came out at 72.4%.

Compound `COc1cc(N2CCN(CCC3CCN(c4ccc(N5CCC(=O)NC5=O)cc4)CC3)CC2)c(C)cc1Nc1ncc(Br)c(Nc2ccc3nccnc3c2P(C)(C)=O)n1` [Example 94, 1-(4-(4-(2-(4-(4-((5-bromo-4-((5-(dimethylphosphoryl)quinoxalin-6-yl)amino)pyrimidin-2-yl)amino)-5-methoxy-2-methylphenyl)piperazin-1-yl)ethyl)piperidin-1-yl)phenyl)dihydropyrimidine-2,4(1H,3H)-dione] displayed a half-maximal degradation concentration (DC50) of 32.2 nM and a Dmax of 58.5%.

`COc1cc(N2CCC(N3CCN(C(=O)CC4CCN(c5ccc(C6CCC(=O)NC6=O)cc5)CC4)CC3)CC2)ccc1Nc1ncc(Cl)c(Nc2ccccc2P(C)(C)=O)n1` (centres unmarked) [Example 107, 3-(4-(4-(2-(4-(1-(4-((5-chloro-4-((2-(dimethylphosphoryl)phenyl)amino)pyrimidin-2-yl)amino)-3-methoxyphenyl)piperidin-4-yl)piperazin-1-yl)-2-oxoethyl)piperidin-1-yl)phenyl)piperidine-2,6-dione]: the DC50 came out at 17.2 nM and the Dmax is 79.3%.

Compound `COc1cc(N2CCC(N3CCN(CCc4ccc(NC5CCC(=O)NC5=O)cc4)CC3)CC2)ccc1Nc1ncc(Cl)c(Nc2ccccc2P(C)(C)=O)n1` (centres unmarked) [Example 108] displayed a half-maximal degradation concentration (DC50) of 16.6 nM and a Dmax of 82.2%.

Take `COc1cc(N2CCC(N3CCN(CCCOc4ccc(OC5CCC(=O)NC5=O)cc4)CC3)CC2)ccc1Nc1ncc(Cl)c(Nc2ccccc2P(C)(C)=O)n1` (centres unmarked) [Example 109, 3-(4-(3-(4-(1-(4-((5-chloro-4-((2-(dimethylphosphoryl)phenyl)amino)pyrimidin-2-yl)amino)-3-methoxyphenyl)piperidin-4-yl)piperazin-1-yl)propoxy)phenoxy)piperidine-2,6-dione]: the 50% degradation concentration (DC50) came out at 189 nM and the Dmax was found to be 79.6%.

The compound `COc1cc(N2CCC(N3CCN(CC4CCC(c5ccc(N6CCC(=O)NC6=O)cc5)CC4)CC3)CC2)ccc1Nc1ncc(Cl)c(Nc2ccccc2P(C)(C)=O)n1` (centres unmarked) [Example 110, 1-(4-(4-((4-(1-(4-((5-chloro-4-((2-(dimethylphosphoryl)phenyl)amino)pyrimidin-2-yl)amino)-3-methoxyphenyl)piperidin-4-yl)piperazin-1-yl)methyl)cyclohexyl)phenyl)dihydropyrimidine-2,4(1H,3H)-dione] displayed a DC50 of 49.6 nM and a Dmax of 81.2%.

Usually DC50 stands for the concentration giving 50% degradation. As usually defined, the Dmax is the greatest extent of degradation seen. A higher Dmax goes with a fuller loss of target.
